Patent US7087642B2 (priority 1999, dated 2006)
Read-outs that look alike come from different tables or passages of the source.

Legend:
[1] = molecular target: IMPDH human type II (Homo sapiens, UniProt P12268); test: biochemical
[2] = system: human PBMC T cells; test: cells; type: cell-based; conditions: Homo sapiens, 72 h, read-out: T-cells (IC50)
[3] = system: human PBMC B cells; test: cells; type: cell-based; conditions: read-out: B-cells (IC50)

Row | Structure (SMILES) | Ki ([1]; read-out: Ki) [nM] | IC50 [2] [nM] | IC50 ([3]; Homo sapiens, 72 h) [nM] | also measured
1 | COc1cc(NC(=O)Nc2cccc(CNC(=O)OCCC#N)c2)ccc1-c1cnco1 [Compound 1] | < 10 | 100 to 1000 | < 100 | –
2 | COc1cc(NC(=O)Nc2cccc(CNC(=O)OCCOCCC#N)c2)ccc1-c1cnco1 [Compound 2] | < 10 | 100 to 1000 | 100 to 1000 | –
3 | COc1cc(NC(=O)Nc2cccc(CNC(=O)OCCN(C)CCC#N)c2)ccc1-c1cnco1 [Compound 3] | < 10 | 100 to 1000 | 100 to 1000 | –
4 | COc1cc(NC(=O)Nc2cccc(CNC(=O)OCC(OCc3ccco3)N(CCC#N)CC(C)C)c2)ccc1-c1cnco1 (centres unmarked) [Compound 4] | < 10 | > 1000 | > 1000 | –
5 | COc1cc(NC(=O)Nc2cccc(CNC(=O)OC(CC#N)CN(C)C)c2)ccc1-c1cnco1 (centres unmarked) [Compound 17] | – | > 1000 | > 1000 | –
6 | COc1cc(NC(=O)Nc2cccc(CNC(=O)O[C@H](CC#N)CN(C)C)c2)ccc1-c1cnco1 [Compound 17] | < 10 | – | – | –
7 | COc1cc(NC(=O)Nc2cccc(CNC(=O)OC(CC#N)CN3CCCCC3)c2)ccc1-c1cnco1 (centres unmarked) [Compound 21] | – | 100 to 1000 | > 1000 | –
8 | COc1cc(NC(=O)Nc2cccc(CNC(=O)O[C@@H](CC#N)CN3CCCCC3)c2)ccc1-c1cnco1 [Compound 21] | < 10 | – | – | –
9 | COc1cc(NC(=O)Nc2cccc(CNC(=O)OC(CCl)CC#N)c2)ccc1-c1cnco1 (centres unmarked) [Compound 25] | – | 100 to 1000 | 100 to 1000 | –
10 | COc1cc(NC(=O)Nc2cccc(CNC(=O)O[C@@H](CCl)CC#N)c2)ccc1-c1cnco1 [Compound 25] | < 10 | – | – | –
11 | COc1cc(NC(=O)Nc2cccc(CNC(=O)OC(CCN(C)C(=O)OC(C)(C)C)c3ccccc3)c2)ccc1-c1cnco1 (centres unmarked) [Compound 31] | 10 to 50 | – | – | –
12 | COc1cc(NC(=O)Nc2cccc(CNC(=O)O[C@H](CCC#N)COCc3ccccc3)c2)ccc1-c1cnco1 [Compound 53] | < 10 | – | – | –
13 | CC[C@H](COCc1ccccc1)OC(=O)NCc1cccc(NC(=O)Nc2ccc(-c3cnco3)c(OC)c2)c1 [Compound 54] | < 10 | – | – | –
14 | COc1cc(NC(=O)Nc2cccc(CNC(=O)O[C@H](CC#N)COCc3ccccc3)c2)ccc1-c1cnco1 [Compound 55] | < 10 | – | – | –
15 | COc1cc(NC(=O)Nc2cccc(CNC(=O)OC(CCN3CCCC3)c3ccccc3)c2)ccc1-c1cnco1 (centres unmarked) [Compound 56] | < 10 | – | 100 to 1000 | –
16 | COc1cc(NC(=O)Nc2cccc(CNC(=O)O[C@@H]3CC[C@H](OC(C)=O)C3)c2)ccc1-c1cnco1 [Compound 85] | > 50 | – | – | –
17 | COc1cc(NC(=O)Nc2cccc(CNC(=O)OC3CCC[C@H]3N3CCOCC3)c2)ccc1-c1cnco1 (some centres unmarked) [Compound 86] | – | > 1000 | > 1000 | –
18 | COc1cc(NC(=O)Nc2cccc(CNC(=O)O[C@@H]3CCC[C@H]3N3CCOCC3)c2)ccc1-c1cnco1 [Compound 86] | 10 to 50 | – | – | –
19 | CC[C@H](COC(=O)CNC(=O)OC(C)(C)C)OC(=O)NCc1cccc(NC(=O)Nc2ccc(-c3cnco3)c(OC)c2)c1 [Compound 93] | 10 to 50 | – | – | –
20 | CC[C@H](COC(C)=O)OC(=O)NCc1cccc(NC(=O)Nc2ccc(-c3cnco3)c(OC)c2)c1 [Compound 94] | < 10 | – | – | –
21 | CC[C@H](COC(=O)CN)OC(=O)NCc1cccc(NC(=O)Nc2ccc(-c3cnco3)c(OC)c2)c1 [Compound 95] | 10 to 50 | – | – | –
22 | CC[C@H](COP(=O)(O)O)OC(=O)NCc1cccc(NC(=O)Nc2ccc(-c3cnco3)c(OC)c2)c1 [Compound 96] | 10 to 50 | – | – | –

Row | Structure (SMILES) | Ki ([1]; read-out: Ki) [nM] | IC50 [2] [nM] | IC50 ([3]; Homo sapiens, 72 h) [nM] | also measured
23 | COc1cc(NC(=O)Nc2cccc(CNC(=O)OC(CN3CCSCC3)c3ccccc3)c2)ccc1-c1cnco1 (centres unmarked) [Compound 105] | – | 100 to 1000 | 100 to 1000 | –
24 | COc1cc(NC(=O)Nc2cccc(CNC(=O)O[C@H](CN3CCSCC3)c3ccccc3)c2)ccc1-c1cnco1 [Compound 105] | < 10 | – | – | –
25 | COc1cc(NC(=O)Nc2cccc(CNC(=O)OC(CN3CC[S+]([O-])CC3)c3ccccc3)c2)ccc1-c1cnco1 (centres unmarked) [Compound 106] | – | < 100 | < 100 | –
26 | COc1cc(NC(=O)Nc2cccc(CNC(=O)O[C@H](CN3CC[S+]([O-])CC3)c3ccccc3)c2)ccc1-c1cnco1 [Compound 106] | > 50 | – | – | –
27 | CCCN(CC)CC(OC(=O)NCc1cccc(NC(=O)Nc2ccc(-c3cnco3)c(OC)c2)c1)c1ccccc1 (centres unmarked) [Compound 111] | – | 100 to 1000 | 100 to 1000 | –
28 | CCCN(CC)C[C@@H](OC(=O)NCc1cccc(NC(=O)Nc2ccc(-c3cnco3)c(OC)c2)c1)c1ccccc1 [Compound 111] | > 50 | – | – | –
29 | COc1cc(NC(=O)Nc2cccc(CNC(=O)OC(CCN(C)CC(C)C)c3ccccc3)c2)ccc1-c1cnco1 (centres unmarked) [Compound 124] | > 50 | – | – | –
30 | CCN(CC1CC1)CC(OC(=O)NCc1cccc(NC(=O)Nc2ccc(-c3cnco3)c(OC)c2)c1)c1ccccc1 (centres unmarked) [Compound 134] | – | 100 to 1000 | 100 to 1000 | –
31 | CCN(CC1CC1)C[C@@H](OC(=O)NCc1cccc(NC(=O)Nc2ccc(-c3cnco3)c(OC)c2)c1)c1ccccc1 [Compound 134] | 10 to 50 | – | – | –
32 | CCN(CC(OC(=O)NCc1cccc(NC(=O)Nc2ccc(-c3cnco3)c(OC)c2)c1)c1ccccc1)C1CC1 (centres unmarked) [Compound 135] | > 50 | – | – | –
33 | CCCN(CC(OC(=O)NCc1cccc(NC(=O)Nc2ccc(-c3cnco3)c(OC)c2)c1)c1ccccc1)C1CC1 (centres unmarked) [Compound 136] | > 50 | – | – | –
34 | COc1cc(NC(=O)Nc2cccc(CNC(=O)O[C@H](CN(CC3CC3)C3CC3)c3ccccc3)c2)ccc1-c1cnco1 [Compound 137] | > 50 | – | – | –
35 | CCC(COS(N)(=O)=O)OC(=O)NCc1cccc(NC(=O)Nc2ccc(-c3cnco3)c(OC)c2)c1 (centres unmarked) [Compound 138] | – | 100 to 1000 | 100 to 1000 | –
36 | CC[C@H](COS(N)(=O)=O)OC(=O)NCc1cccc(NC(=O)Nc2ccc(-c3cnco3)c(OC)c2)c1 [Compound 138] | < 10 | – | – | –
37 | CCN(C)CCC(OC(=O)NCc1cccc(NC(=O)Nc2ccc(-c3cnco3)c(OC)c2)c1)c1ccccc1 (centres unmarked) [Compound 139] | – | – | – | Ki [1]: > 50 nM
38 | CCN(CC)CCC(OC(=O)NCc1cccc(NC(=O)Nc2ccc(-c3cnco3)c(OC)c2)c1)c1ccccc1 (centres unmarked) [Compound 140] | – | – | – | Ki [1]: > 50 nM
39 | COc1cc(NC(=O)Nc2cccc(CNC(=O)O[C@H](CO)CCO)c2)ccc1-c1cnco1 [Compound 141] | 10 to 50 | – | – | –
40 | CCN(CC)CC(OC(=O)NCc1cccc(NC(=O)Nc2ccc(-c3cnco3)c(OC)c2)c1)c1nccs1 (centres unmarked) [Compound 142] | 10 to 50 | – | – | –
41 | CCN(CC)CC(OC(=O)NCc1cccc(NC(=O)Nc2ccc(-c3cnco3)c(OC)c2)c1)C1CCCCC1 (centres unmarked) [Compound 157] | – | < 100 | < 100 | –
42 | CCN(CC)C[C@@H](OC(=O)NCc1cccc(NC(=O)Nc2ccc(-c3cnco3)c(OC)c2)c1)C1CCCCC1 [Compound 157] | 10 to 50 | – | – | –
43 | CCC(COC(N)=O)OC(=O)NCc1cccc(NC(=O)Nc2ccc(-c3cnco3)c(OC)c2)c1 (centres unmarked) [Compound 159] | – | 100 to 1000 | 100 to 1000 | –
44 | CC[C@H](COC(N)=O)OC(=O)NCc1cccc(NC(=O)Nc2ccc(-c3cnco3)c(OC)c2)c1 [Compound 159] | < 10 | – | – | –

Row | Structure (SMILES) | Ki ([1]; read-out: Ki) [nM] | IC50 [2] [nM] | IC50 ([3]; Homo sapiens, 72 h) [nM] | also measured
45 | CCC(CNC(=O)OC(C)(C)C)OC(=O)NCc1cccc(NC(=O)Nc2ccc(-c3cnco3)c(OC)c2)c1 (centres unmarked) [Compound 160] | > 50 | – | – | –
46 | CCC(CN)OC(=O)NCc1cccc(NC(=O)Nc2ccc(-c3cnco3)c(OC)c2)c1 (centres unmarked) [Compound 161] | < 10 | – | – | –
47 | CCC(CO)OC(=O)N[C@@H](C)c1cccc(NC(=O)Nc2ccc(-c3cnco3)c(OC)c2)c1 (some centres unmarked) [Compound 164] | – | 100 to 1000 | 100 to 1000 | –
48 | CC[C@H](CO)OC(=O)N[C@@H](C)c1cccc(NC(=O)Nc2ccc(-c3cnco3)c(OC)c2)c1 [Compound 164] | 10 to 50 | – | – | –
49 | CC[C@H](CO)OC(=O)N[C@H](C)c1cccc(NC(=O)Nc2ccc(-c3cnco3)c(OC)c2)c1 [Compound 165] | > 50 | – | – | –
50 | CCN(CC)C[C@@H](OC(=O)NC(C)c1cccc(NC(=O)Nc2ccc(-c3cnco3)c(OC)c2)c1)c1ccccc1 (some centres unmarked) [Compound 167] | > 50 | – | – | –
51 | CCC(CC#N)OC(=O)N[C@@H](C)c1cccc(NC(=O)Nc2ccc(C#N)c(OC)c2)c1 (some centres unmarked) [Compound 168] | – | 100 to 1000 | 100 to 1000 | –
52 | CC[C@@H](CC#N)OC(=O)N[C@@H](C)c1cccc(NC(=O)Nc2ccc(C#N)c(OC)c2)c1 [Compound 168] | – | – | – | Ki [1]: 10 to 50 nM
53 | CCC(CC#N)OC(=O)N[C@H](C)c1cccc(NC(=O)Nc2ccc(-c3cnco3)c(OC)c2)c1 (some centres unmarked) [Compound 171] | – | 100 to 1000 | < 100 | –
54 | CC[C@H](CC#N)OC(=O)N[C@H](C)c1cccc(NC(=O)Nc2ccc(-c3cnco3)c(OC)c2)c1 [Compound 171] | > 50 | – | – | –
55 | CCC(CC#N)OC(=O)N[C@H](C)c1cccc(NC(=O)Nc2ccc(C#N)c(OC)c2)c1 (some centres unmarked) [Compound 172] | – | > 1000 | – | IC50 [3]: > 1000 nM
56 | CC[C@@H](CC#N)OC(=O)N[C@H](C)c1cccc(NC(=O)Nc2ccc(C#N)c(OC)c2)c1 [Compound 172] | – | – | – | Ki [1]: > 50 nM
57 | CCC(CO)OC(=O)N[C@@H](C)c1cccc(NC(=O)Nc2ccc(C#N)c(OC)c2)c1 (some centres unmarked) [Compound 176] | – | > 1000 | > 1000 | –
58 | CC[C@@H](CO)OC(=O)N[C@@H](C)c1cccc(NC(=O)Nc2ccc(C#N)c(OC)c2)c1 [Compound 176] | > 50 | – | – | –
59 | CCC(NC(=O)O[C@@H](CC)CC#N)c1cccc(NC(=O)Nc2ccc(C#N)c(OC)c2)c1 (some centres unmarked) [Compound 177] | > 50 | – | – | –
60 | CCC(NC(=O)O[C@H](CC)CC#N)c1cccc(NC(=O)Nc2ccc(C#N)c(OC)c2)c1 (some centres unmarked) [Compound 178] | > 50 | – | – | –
61 | CCC(CC#N)OC(=O)N[C@@H](C)c1cccc(NC(=O)Nc2ccc(C#N)c(Cl)c2)c1 (some centres unmarked) [Compound 183] | – | 100 to 1000 | 100 to 1000 | –
62 | CC[C@H](CC#N)OC(=O)N[C@@H](C)c1cccc(NC(=O)Nc2ccc(C#N)c(Cl)c2)c1 [Compound 183] | – | – | – | Ki [1]: 10 to 50 nM
63 | COc1cc(NC(=O)Nc2cccc([C@H](C)NC(=O)OC3CCOC3)c2)ccc1C#N (some centres unmarked) [Compound 184] | – | 100 to 1000 | 100 to 1000 | –
64 | COc1cc(NC(=O)Nc2cccc([C@H](C)NC(=O)O[C@@H]3CCOC3)c2)ccc1C#N [Compound 184] | 10 to 50 | – | – | –
65 | CCOc1cc(NC(=O)Nc2cccc([C@H](C)NC(=O)O[C@H]3CCOC3)c2)ccc1C#N [Compound 186] | > 50 | – | – | –
